Source: the supplement of paper PMC4862054

Experiments:
BT-549 = assay: normalised viability (% of control), CellTiter-Blue; higher = more viable cells (about 100 = DMSO control); conditions: incubation time: 72 h
How it was run: (§1)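 The reported figure is normalised viability at a single listed concentration of the series. Breast cancer cell lines (20 µl suspension) went onto 384-well plates holding compound in 5 µl medium for 72 h. CellTiter-Blue (2.5 µl, 2 h, 37 °C) was read by fluorescence at 560/590 nm, and each plate was scaled to vehicle at 100 and a positive kill control at 0.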

CAL-85-1 = assay: as above; conditions: incubation time: 72 h
How it was run: as §1

HCC1599 = assay: as above; conditions: incubation time: 72 h
How it was run: as §1

MDA-MB-436 = assay: as above; conditions: incubation time: 72 h
How it was run: as §1

HCC1143 = assay: as above; conditions: incubation time: 72 h
How it was run: as §1

MDA-MB-231 = assay: as above; conditions: incubation time: 72 h
How it was run: as §1

CAL-148 = conditions: 72 h
How it was run: (§2)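 For viability, cells received 2.5 µl CellTiter-Blue for 2 h at 37 °C and fluorescence was read at 560/590 nm. Before this, breast cancer cell lines in 20 µl suspension had been incubated for 72 h on 384-well plates pre-loaded with compound dissolved in 5 µl medium. EC50 was obtained from a percent-inhibition dose-response fit censored at the highest concentration, after normalisation of each plate to vehicle and a positive kill control; rows with a zero drug sensitivity score were discarded.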

MDA-MB-453 = conditions: 72 h
How it was run: as §2

| Structure (SMILES) | normalised viability (BT-549; 1 nM) | normalised viability (BT-549; 100 nM) | normalised viability (BT-549; 1000 nM) | normalised viability (CAL-85-1; 0.3 nM) | normalised viability (CAL-85-1; 3 nM) | normalised viability (CAL-85-1; 10 nM) | normalised viability (HCC1599; 1 nM) | normalised viability (HCC1599; 100 nM) | normalised viability (HCC1599; 1000 nM) | normalised viability (MDA-MB-436; 1 nM) | normalised viability (MDA-MB-436; 100 nM) | normalised viability (MDA-MB-436; 1000 nM) | normalised viability (HCC1143; 100 nM) | normalised viability (HCC1143; 1000 nM) | normalised viability (MDA-MB-231; 1 nM) | normalised viability (MDA-MB-231; 100 nM) | normalised viability (MDA-MB-231; 1000 nM) | EC50, CellTiter-Blue viability (CAL-148) | EC50, CellTiter-Blue viability (MDA-MB-453) | normalised viability (HCC1143; 1 nM) | normalised viability (BT-549; 10 nM) | normalised viability (BT-549; 10000 nM) | normalised viability (CAL-85-1; 30 nM) | normalised viability (CAL-85-1; 100 nM) | normalised viability (HCC1599; 10 nM) | normalised viability (HCC1599; 10000 nM) | normalised viability (MDA-MB-436; 10 nM) | normalised viability (MDA-MB-436; 10000 nM) | normalised viability (HCC1143; 10 nM) | normalised viability (HCC1143; 10000 nM) | normalised viability (MDA-MB-231; 10 nM) | normalised viability (MDA-MB-231; 10000 nM) |
| --- | --- | --- | --- | --- | --- | --- | --- | --- | --- | --- | --- | --- | --- | --- | --- | --- | --- | --- | --- | --- | --- | --- | --- | --- | --- | --- | --- | --- | --- | --- | --- | --- |
| Cc1ccc(C(=O)Nc2ccc(CN3CCN(C)CC3)c(C(F)(F)F)c2)cc1C#Cc1cnc2cccnn12 [Ponatinib] | 107% | 120% | 49.3% | 92.5% | 85.4% | 101% | 95.4% | 95.4% | 64.9% | 106% | 91.5% | 90.5% | 113% | 98.8% | 98.8% | 82.6% | 16.9% | 295 nM | 282 nM | – | – | – | – | – | – | – | – | – | – | – | – | – |
| NC(=O)Nc1cc(-c2cccc(F)c2)sc1C(=O)N[C@H]1CCCNC1 [AZD 7762] | 114% | 118% | 35.5% | 106% | 98.6% | 99.4% | 93.2% | 73.1% | 53.9% | 99% | 83.7% | 18.5% | 109% | 34.8% | 112% | 102% | 31.2% | 661 nM | 232 nM | 120% | – | – | – | – | – | – | – | – | – | – | – | – |
| C=C(c1ccc(C(=O)O)cc1)c1cc2c(cc1C)C(C)(C)CCC2(C)C [Bexarotene] | – | – | 75.6% | – | 94.9% | – | – | – | 72.2% | – | – | 97.2% | – | 117% | – | – | 86.5% | 1730 nM | – | – | 89.5% | 74.5% | 91.6% | 92% | 81.2% | 82.1% | 90.1% | 81% | 123% | 104% | 91.2% | 105% |
| CN[C@@H]1C[C@H]2O[C@@](C)([C@@H]1OC)n1c3ccccc3c3c4c(c5c6ccccc6n2c5c31)C(=O)N[C@H]4O [UCN-01] | – | – | 11.8% | – | 87.4% | – | – | – | 48.3% | – | – | 47.8% | – | 20.6% | – | – | 17.2% | 2350 nM | 182 nM | – | 91.4% | 0.77% | 73.6% | 60.4% | 81.1% | 21.2% | 110% | 12.8% | 77.7% | 20.4% | 93.7% | 0.84% |
| CO[C@H]1/C=C\C=C(/C)C(=O)NC2=CC(=O)C(NCCN(C)C)=C(C[C@@H](C)C[C@H](OC)[C@H](O)[C@@H](C)/C=C(\C)[C@@H]1OC(N)=O)C2=O [Alvespimycin] | 104% | 33.5% | 21.2% | 111% | 85.5% | 95.1% | 72.9% | 43% | 31.3% | 90.9% | 28.9% | 20.4% | 46.8% | 37.7% | 99% | 35.2% | 28.3% | 27.6 nM | 11.2 nM | 103% | – | – | – | – | – | – | – | – | – | – | – | – |
| CCN(CCCOc1ccc2c(Nc3cc(CC(=O)Nc4cccc(F)c4)[nH]n3)ncnc2c1)CCOP(=O)(O)O [Barasertib] | 93.5% | 69.1% | 69.8% | 102% | 89.8% | 93.2% | 79.4% | 81.6% | 94.2% | 126% | 56.5% | 88.1% | 78.4% | 85.9% | 110% | 75.3% | 81.1% | 7.07 nM | 6.32 nM | 124% | – | – | – | – | – | – | – | – | – | – | – | – |
| COc1cc([C@@H]2c3cc4c(cc3[C@@H](O[C@@H]3O[C@@H]5CO[C@@H](C)O[C@H]5[C@H](O)[C@H]3O)[C@H]3COC(=O)[C@H]23)OCO4)cc(OC)c1O [Etoposide] | – | – | 56% | – | 99.9% | – | – | – | 94% | – | – | 84.1% | – | 66.6% | – | – | 82.7% | 1130 nM | – | – | 84.9% | 46.7% | 93.9% | 102% | 99.1% | 72.3% | 99.8% | 55.2% | 85.7% | 47.3% | 121% | 66.1% |
| CCC1=C[C@@H]2CN(C1)Cc1c([nH]c3ccccc13)[C@@](C(=O)OC)(c1cc3c(cc1OC)N(C)[C@H]1[C@@](O)(C(=O)OC)[C@H](OC(C)=O)[C@]4(CC)C=CCN5CC[C@]31[C@@H]54)C2 [Vinorelbine] | – | – | 15.8% | – | 94.2% | – | – | – | 44.4% | – | – | 41.4% | – | 45.8% | – | – | 16.7% | 49.1 nM | 9.96 nM | – | 94.9% | 11.4% | 60.3% | 34.5% | 84.2% | 53.5% | 109% | 34.6% | 93.9% | 38.7% | 109% | 12.7% |
| COc1cc2nccc(Oc3ccc(NC(=O)C4(C(=O)Nc5ccc(F)cc5)CC4)cc3)c2cc1OC [Cabozantinib] | 96.3% | 108% | 101% | 89.2% | 87.5% | 88.9% | 91.8% | 88.6% | 74.6% | 110% | 102% | 97.3% | 87.9% | 85.5% | 86.4% | 94.1% | 87.7% | 558 nM | 874 nM | 78.9% | – | – | – | – | – | – | – | – | – | – | – | – |
| C[C@@H](Oc1cc(-c2cnn(C3CCNCC3)c2)cnc1N)c1c(Cl)ccc(F)c1Cl [Crizotinib] | – | – | 107% | – | 91.7% | – | – | – | 99.1% | – | – | 17.1% | – | 96.1% | – | – | 63.5% | 3570 nM | 4070 nM | – | 107% | 30.1% | 91% | 94% | 105% | 60.8% | 71.3% | 8.24% | 87.8% | 42.5% | 89.8% | 0.88% |
| CNCc1ccc(-c2[nH]c3cc(F)cc4c3c2CCNC4=O)cc1 [Rucaparib] | – | – | 107% | – | 93.2% | – | – | – | 128% | – | – | 62.6% | – | 94.2% | – | – | 84.3% | 7670 nM | 6180 nM | – | 100% | 93.8% | 84.2% | 94.6% | 95.8% | 96.2% | 103% | 98.2% | 84.3% | 89.9% | 99.2% | 75.4% |
| Cc1ccc(C(=O)N(CCCN)[C@@H](c2oc3cc(Cl)ccc3c(=O)c2Cc2ccccc2)C(C)C)cc1 | 87.3% | 25.1% | 34.8% | 92.9% | 90.1% | 33% | 97.2% | 94.1% | 81.7% | 97.8% | 60.6% | 59.2% | 43.2% | 37.5% | 37.1% | 25.8% | 24.2% | 5.81 nM | 5.76 nM | 83.7% | – | – | – | – | – | – | – | – | – | – | – | – |
| CC(C)Cn1cnc2c(N)nc3ccccc3c21 [Imiquimod] | – | – | 103% | – | 100% | – | – | – | 100% | – | – | 92.3% | – | 99.9% | – | – | 89.3% | – | 6690 nM | – | 94.5% | 78.7% | 90.6% | 105% | 102% | 109% | 94.2% | 96.6% | 96.5% | 94.1% | 84.8% | 107% |
| C#Cc1cccc(Nc2ncnc3cc(OCCOC)c(OCCOC)cc23)c1 [Erlotinib] | – | – | 106% | – | 93.7% | – | – | – | 74.5% | – | – | 83.9% | – | 90.7% | – | – | 120% | 3630 nM | 8340 nM | – | 117% | 66.9% | 82.8% | 88% | 91% | 54.8% | 108% | 74% | 105% | 68.8% | 95% | 95.5% |
